Source: US8163476B2, “CUDR as biomarker for cancer progression and therapeutic response” (The Chinese University of Hong Kong, priority 2004, dated 2012)

Legend:
[1] = test system: A431 parent cells, A5A and A10A cells; assay: Response of A431 sublines to doxorubicin by MTT assay; type: cell-based, human; settings: A431/A5A and A10A cells versus A431 parent cells; incubated with drug for 5 days; FIG. 1
Method: Responses of A431 parent cells, A5A and A10A cells to doxorubicin (DOX) were compared in this Example.
A431/A5A cells were A431 cells survived from treatment with 5 μg/ml of DOX, and A10A cells were derived from A5A cells survived from treatment with 10 μg/ml of DOX.
Cells were seeded in 96-well plates for 2 days and incubated with various concentrations of DOX for 5 days. At the end of the incubation, the cells were incubated in 50 μl of a 0.1 mg/ml solution of 3-[4,5-dimethylthiaol-2-yl]-2,5-diphenyltetrazolium bromide (MTT) at 37° C. for 3 h and lysed in 150 μl of dimethyl sulfoxide at room temperature for 30 min. The absorbance of each well was measured at 580 nm in a microplate reader. The survival percentage of cells was calculated as the ratio between cells with drug treatment and cells without drug treatment.

[2] = test system: stable CUDR transfectant of A431 cells; assay: Response of stable CUDR transfectants of A431 cells to DOX and Taxol by MTT assay; type: cell-based, human; settings: CUDR transfectants versus A431 cells transfected with empty vector; drug for 5 days; FIGS. 5A and 5C
Method: (§1) A431 cells were transfected with a vector carrying the full-length CUDR cDNA or an empty vector. After transfection, the cells were selected with G418 and individual colony was picked for establishment as stable transfectants. The stable transfectants were maintained in culture supplemented with G418. The response of cells to drugs was measured by both MTT assay and DNA fragmentation assay.
For the MTT assay, the cells were seeded in a 96-well plate for 2 days and incubated with various concentrations of DOX or Taxol for 5 days. At the end of the incubation, the cells were incubated with 50 μl of a 0.1 mg/ml solution of 3-[4,5-dimethylthiaol-2-yl]-2,5-diphenyltetrazolium bromide (MTT) at 37° C. for 3 h and lysed in 150 μl of dimethyl sulfoxide at room temperature for 30 min. The absorbance of each well was measured at 580 nm in a microplate reader. The percentage of cell survival was calculated as the ratio between cells with drug treatment and cells without drug treatment. The MTT results for DOX and Taxol were shown in FIGS. 5A and 5C respectively. ◯: control cells, i.e. A431 cells transfected with empty vector; ▴: stable CUDR transfectant of A431 cells. Error bar: standard deviation.

[3] = test system: stable CUDR transfectant of A431 cells; assay: DNA fragmentation assay (apoptotic response) in stable CUDR transfectants of A431 cells; type: cell-based, human; settings: CUDR transfectants versus A431 cells transfected with empty vector; drug for 3 days; FIGS. 5B and 5D
Method: as §1
DNA fragmentation assay, one of the common methods, was conducted to assess the apoptotic response of cells upon treatment with anticancer drug. The cells were seeded in 60 mm Petri dish for 2 days and then exposed to various concentrations of DOX or Taxol for 3 days. After incubation, the cells were lysed in lysis buffer containing Tris-HCl, SDS, EDTA and protease K and incubated at 45° C. for 2 h. After phenol/chloroform extraction, DNA was precipitated with sodium acetate and 100% ethanol. After overnight digestion with RNase A at 37° C., 40 μg of the DNA sample were separated on 1.5% EtBr staining agarose gel. The DNA fragmentation pattern was viewed with UV light box. The presence of the “DNA laddering” pattern indicates the induction of apoptosis in cells; the more extensive the laddering pattern, the more significant the apoptosis induction. AN: control cells, A431 cells transfected with an empty vector; AG: stable CUDR transfectant of A431 cells; and M: 100 bp marker.

[4] = test system: Human squamous carcinoma A431 cells; assay: Doxorubicin sensitivity of A431 cells after transfection with full-length CUDR or CUDR antisense oligonucleotides (MTT assay); type: cell-based; settings: plasmid 24 h or oligonucleotides 4 h, then DOX for 48 h
Method: The role of CUDR in sensitivity of cells to doxorubicin was examined. Human squamous carcinoma A431 cells were transfected with either plasmid carrying the full-length CUDR cDNA or antisense oligonucleotides of CUDR. The cells were seeded in a 96-well plate for 4 h before incubation with full-length CUDR plasmid DNA for 24 h or CUDR oligonucleotides for 4 h. After transfection, the cells were incubated with DOX for 48 h. The cell survival was measured by MTT assay. Furthermore, the CUDR mRNA level after transfection was examined by Northern blot analysis.
In FIG. 4A, ---o--- (C): cells without transfection; -▪- (CUDR): cells transfected with full length CUDR. In FIG. 4B, ---o--- (C): Cells without transfection treatment; -●- (S): transfection with sense CUDR oligonucleotides; -▪- (AS): transfection with CUDR antisense oligonucleotides.
Antisense sequence for CUDR was: 5′-[…]-3′ (nt1347-1367) (SEQ ID NO:9) and the sequence for the sense oligonucleotides was complementary to that of the antisense.

Compound | response of cells to drug (survival percentage of cells) [1] | response of cells to drug (percentage of cell survival) [2] | apoptotic response of cells upon drug treatment (DNA laddering) [3] | effect of transfection on doxorubicin sensitivity of cells (cell survival) ([4]; FIG. 4) | effect of transfection on doxorubicin sensitivity of cells (cell survival) ([4]; FIG. 4, listed as antisense CUDR nucleic acids)
COc1cccc2c1C(=O)c1c(O)c3c(c(O)c1C2=O)C[C@@](O)(C(=O)CO)C[C@@H]3O[C@H]1C[C@H](N)[C@H](O)[C@H](C)O1 [DOX, doxorubicin] | more resistant | more resistant | more refractory to the apoptosis |  | 
CC(=O)O[C@H]1C(=O)[C@@]2(C)[C@H]([C@H](OC(=O)c3ccccc3)[C@]3(O)C[C@H](OC(=O)[C@H](O)[C@@H](NC(=O)c4ccccc4)c4ccccc4)C(C)=C1C3(C)C)[C@]1(OC(C)=O)CO[C@@H]1C[C@@H]2O [Taxol] |  | more resistant | more refractory to the apoptosis |  | 
antisense CUDR oligonucleotides: Antisense sequence for CUDR: 5′-CAAGGTGCCAGTTAGCGTAT-3′ (nt1347-1367) (SEQ ID NO:9) (listed as DNA, chemistry not given here) |  |  |  | increased the DOX sensitivity of cells | increase the drug sensitivity of cancer cells
